The source of these data is US8778906B2, “Modulation of line-1 reverse transcriptase” (ALT Solutions, Inc., priority 2003, dated 2014).

One assay relates to U-2 OS cells. The assay is described as follows: AZT treatment of ALT cells, flow cytometry for telomere length (PNA probe) and cell cycle (PI). The class given is cell-based, human. As to the method:
(§1) Telomere length in AZT treated and untreated cell lines was measured by flow cytometry with a telomere-specific peptide nucleic acid (PNA) probe^22,23. To determine cell cycle distribution, cells were stained with propidium iodide (PI)^22. […] AZT at the chosen concentration had no effect on telomere length or cell cycle distribution in the HeLa cells (not shown).
Rate of DNA synthesis was determined by incorporation of 5-bromodeoxyuridine (BdU)^24.
(§2) Cell lines: All cell lines used in this study were obtained from American Type Culture Collection (Rockville, Md.). The cells origins included osteosarcoma (Saos-2 and U-2 OS), liver ([…]) and uterine cervix (HeLa). Cells were cultured following ATCC recommendation. For treatment of the cells with AZT, the media was supplemented with 0.2 μM of 3′-azido-2′,3′-dideoxythymidine (Sigma)^28.
(§3) Telomere length measurement by flow cytometry: Cell were stained with telomere specific FITC conjugated (C3TA2)3 PNA (Applied Biosystems) probe and contrastained with 0.06 μg/ml PI as described^21.

A further assay deals with Saos-2 cells. The assay is described as above. The assay is classed as cell-based, human. The note with it: Saos-2, 0.2 μM AZT, 14 days. As to the method: as §1, §2, §3
In assay [1] the test system is WM1175 (malignant melanoma) or HUT292DM (lung cancer) cells. The assay is described as follows: Telomerase-positive xenograft tumors in immunodeficient mice treated with AZT. The class given is in vivo. The conditions noted are these: AZT at the dose tested (total daily dose 10 mg/kg). How it is done: After induction of tumors, mice in the experimental groups may be treated with AZT. Mice may be injected i.p. twice a day with solution of AZT in PBS with a total daily dose of 10 mg/kg. Mice in control group may be injected with PBS. Alternatively, AZT at the same daily dose may be given in drinking water. […] As a separate set of controls, telomerase-positive tumors in nude mouse may be induced by injecting the immunodeficient mice with WM1175 (malignant melanoma) or HUT292DM (lung cancer) cells instead of the transformed IIICF/c fibroblast cells.

As to `Cc1cn([C@H]2C[C@H](N=[N+]=[N-])[C@@H](CO)O2)c(=O)[nH]c1=O` [AZT, 3′-azido-2′,3′-dideoxythymidine], the “DNA content (PI staining)” value with U-2 OS cells (AZT treated cells at later stages of treatment, compared to untreated cells) is reported as “higher DNA content”. Also, the “time of AZT treatment after which changes in cell cycle distribution, DNA synthesis and telomere length could be detected” value with U-2 OS cells (U-2 OS, 0.2 μM AZT) stood at 10 days. The apoptosis result in the assay on U-2 OS cells (U-2 OS, 0.2 μM AZT, 14 days) is “massive apoptosis”; in the assay on Saos-2 cells, “massive apoptosis”. For the same compound, the telomere length entry in the assay with U-2 OS cells (U-2 OS, 0.2 μM AZT, 14 days) is recorded as “telomere shortening”; with Saos-2 cells it was “telomere shortening”. For the same compound, the cell cycle distribution result in the assay with U-2 OS cells (U-2 OS, 0.2 μM AZT, 14 days, PI staining) is given as “G2 arrest”; with Saos-2 cells (PI staining) it was “G2 arrest”. Besides, the “inhibition of telomerase-positive tumors” value in assay [1] is “cannot be inhibited”.
